In the test the target is T1, Dd2‐PfATP4^G358S (Plasmodium falciparum, UniProt A0A143ZZK9, G1128R/G358S).
T1 construct: We prepared membranes from Dd2‐Polδ‐PfATP4^G358S parasites (generated previously[22]); endogenous in cells; host or cells: P. falciparum Dd2-Polδ-PfATP4^G358S trophozoites (membrane preparation)
T1 sequence (A0A143ZZK9 1-1264 G358S/G1128R): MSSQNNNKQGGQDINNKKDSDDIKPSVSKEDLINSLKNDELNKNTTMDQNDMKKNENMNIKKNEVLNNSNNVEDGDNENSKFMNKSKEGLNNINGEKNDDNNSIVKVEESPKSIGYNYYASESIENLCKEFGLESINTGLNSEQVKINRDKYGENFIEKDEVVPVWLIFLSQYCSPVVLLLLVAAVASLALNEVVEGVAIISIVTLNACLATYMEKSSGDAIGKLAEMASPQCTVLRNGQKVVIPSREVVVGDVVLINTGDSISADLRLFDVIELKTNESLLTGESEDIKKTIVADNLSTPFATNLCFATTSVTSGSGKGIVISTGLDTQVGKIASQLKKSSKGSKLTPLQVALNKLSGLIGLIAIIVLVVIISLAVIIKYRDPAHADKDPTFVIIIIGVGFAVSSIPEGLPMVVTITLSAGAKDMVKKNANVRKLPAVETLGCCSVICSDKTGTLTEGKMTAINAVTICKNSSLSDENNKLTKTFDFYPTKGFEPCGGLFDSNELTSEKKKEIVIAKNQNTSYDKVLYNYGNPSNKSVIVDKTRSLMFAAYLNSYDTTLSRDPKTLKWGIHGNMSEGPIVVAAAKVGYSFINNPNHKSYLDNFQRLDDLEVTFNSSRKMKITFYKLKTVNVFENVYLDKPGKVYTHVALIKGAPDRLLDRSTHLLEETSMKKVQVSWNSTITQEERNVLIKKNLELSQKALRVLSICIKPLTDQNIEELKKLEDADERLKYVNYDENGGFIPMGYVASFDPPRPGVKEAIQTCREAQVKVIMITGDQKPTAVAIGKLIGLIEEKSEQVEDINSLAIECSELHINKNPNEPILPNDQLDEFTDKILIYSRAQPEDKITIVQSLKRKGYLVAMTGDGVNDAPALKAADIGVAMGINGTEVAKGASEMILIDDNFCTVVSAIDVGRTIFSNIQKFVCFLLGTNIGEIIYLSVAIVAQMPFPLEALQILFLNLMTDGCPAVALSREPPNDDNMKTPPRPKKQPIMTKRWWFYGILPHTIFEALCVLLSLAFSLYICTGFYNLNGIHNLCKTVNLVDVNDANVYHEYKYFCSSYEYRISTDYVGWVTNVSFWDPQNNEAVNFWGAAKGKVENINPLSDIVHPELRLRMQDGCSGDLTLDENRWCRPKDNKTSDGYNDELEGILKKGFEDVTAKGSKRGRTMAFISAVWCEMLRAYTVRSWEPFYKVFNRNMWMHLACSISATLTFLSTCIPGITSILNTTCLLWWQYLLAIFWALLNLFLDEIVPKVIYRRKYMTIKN
As to the kind of experiment: PfATP4 Na+ assay (membrane ATPase), Dd2-Polδ-PfATP4^G358S membranes. It is filed as biochemical, P. falciparum. The note with it: membranes from Dd2-Polδ-PfATP4^G358S parasites. The protocol:
Figure 4 Dihydroquinazolinone analogs 14 and 36 (WJM062) inhibit Na^+‐ATPase activity in membranes prepared from isolated P. falciparum parasites, consistent with them being PfATP4 inhibitors. (A) The effects of dihydroquinazolinone compounds (2 μM), dihydroartemisinin (DHA; 50 nM; negative control) and 0.2 % v/v DMSO (solvent‐only control) on membrane ATPase activity under high‐[Na^+] conditions (152 mM Na^+) and low‐[Na^+] conditions (2 mM Na^+; stemming from the addition of 1 mM Na2ATP) in the presence and absence of the PfATP4 inhibitor cipargamin (50 nM). The membranes were prepared from isolated trophozoite‐stage 3D7 parasites. The Pi produced is expressed as a percentage of that measured in the 152 mM Na^+ Control. The data are from four independent experiments performed with different membrane preparations; the symbols show the data from individual experiments and the bars show the mean (+SEM). In individual experiments, the Pi produced in the 152 mM Na^+ Control varied from 66 to 96 nmol per mg (total) protein per min. A repeated measures ANOVA with a post hoc Tukey test was used to compare the (pre‐normalised) data for different compounds and conditions. […] In B−D, the Pi production measured in the low‐[Na^+] (2 mM) condition was subtracted from that measured in high‐[Na^+] […] The PfATP4‐associated ATPase activity is expressed as a percentage of that obtained for the high‐[Na^+] […]

Drawing on publication PMC11648822, “Lactam Truncation Yields a Dihydroquinazolinone Scaffold with Potent Antimalarial Activity that Targets PfATP4” (Chemmedchem, 2024), this text covers EC50 for 2 molecules.

Turning to `CN1C(=O)c2ccc(Cl)cc2NC1(C)C(=O)Nc1cncc(Cl)c1` (centres unmarked) [Compound 14, 7‐Chloro‐N‐(5‐chloro‐3‐pyridyl)‐2,3‐dimethyl‐4‐oxo‐1H‐quinazoline‐2‐carboxamide], the EC50 is 12.1 nM. Then `COc1cc(F)c2c(c1)NC(C)(C(=O)Nc1cncc(Cl)c1)N(C)C2=O` (centres unmarked) [Compound 36, N‐(5‐Chloropyridin‐3‐yl)‐5‐fluoro‐7‐methoxy‐2,3‐dimethyl‐4‐oxo‐1,2,3,4‐tetrahydroquinazoline‐2‐carboxamide], with 11.6 nM.

As usually defined, the EC50 is the concentration at which the effect is half-maximal. Lower therefore signals greater potency.
